According to ChEMBL document CHEMBL3822432, “Antibacterial and anticancer activity of a series of novel peptides incorporating cyclic tetra-substituted C(α) amino acids” (Bioorg Med Chem, 2016):
≈ marks a conversion by molar mass, not a printed value. Non-standard residues stand in square brackets, D forms with d. Residues, ends and D or L forms follow the SMILES beside them. ξ: configuration not given here. Ac6c = NC1(C(=O)O)CCCCC1; ξOrn = NCCCC(N)C(=O)O; ξDab = NCCC(N)C(=O)O

Columns and labels:
[1] = test system: Klebsiella aerogenes; test: Antibacterial activity against carbapenem-resistant Enterobacter aerogenes NCDC819-56 ATCC 13048 by two fold serial dilution method; assay type: functional
[2] = test system: Acinetobacter baumannii; test: Antibacterial activity against Acinetobacter baumannii B5W71 ATCC 15149 by two fold serial dilution method; assay type: functional
[3] = Antibacterial activity against Salmonella enterica LT2 Typhimurium ATCC 15277 by two fold serial dilution method; assay type: functional
[4] = test system: Pseudomonas aeruginosa; test: Antibacterial activity against Pseudomonas aeruginosa Boston 41501 ATCC 27853 by two fold serial dilution method; assay type: functional
[5] = Antibacterial activity against carbapenem-resistant Klebsiella pneumoniae K6 ATCC 700603 by two fold serial dilution method; assay type: functional, Klebsiella pneumoniae 700603
[6] = test system: Enterococcus faecalis; test: Antibacterial activity against Enterococcus faecalis Portland ATCC 29212 by two fold serial dilution method; assay type: functional; conditions: ATCC 29212 Portland
[7] = test system: Staphylococcus aureus; test: Antibacterial activity against methicillin-resistant Staphylococcus aureus USA 300 NRS 384 by two fold serial dilution method; assay type: functional
[8] = Antibacterial activity against Clostridium difficile VIP 10463 ATCC 43255 by two fold serial dilution method; assay type: functional, Clostridium difficile ATCC 43255; conditions: Clostridioides difficile
[9] = test system: Staphylococcus aureus; test: Antibacterial activity against Staphylococcus aureus Seattle 1945 ATCC 25923 by two fold serial dilution method; assay type: functional
[10] = test system: Streptococcus pneumoniae; test: Antibacterial activity against Streptococcus pneumoniae 262 ATCC 49619 by two fold serial dilution method; assay type: functional
[11] = test system: Neisseria gonorrhoeae; test: Antibacterial activity against Neisseria gonorrhoeae F-18 ATCC 49226 by two fold serial dilution method; assay type: functional
[12] = Antibacterial activity against Bacillus anthracis Ames NR-3838 by two fold serial dilution method; assay type: functional, Bacillus anthracis str. Ames
[13] = Antibacterial activity against Francisella tularensis SCHU S4 NR-643 by two fold serial dilution method; assay type: functional
[14] = Antibacterial activity against Yersinia pestis CO92 NR641 by two fold serial dilution method; assay type: functional
[15] = test system: Burkholderia pseudomallei; test: Antibacterial activity against Burkholderia pseudomallei AHS 1 NCTC 8016 by two fold serial dilution method; assay type: functional
[16] = test system: Mycobacterium tuberculosis; test: Antibacterial activity against Mycobacterium tuberculosis H37Ra ATCC 2517 by two fold serial dilution method; assay type: functional
[17] = test system: CFPAC-1; test: Antiproliferative activity against human CFPAC-1 cells after 72 hrs by Celltiter-Glo luminescent cell viability assay; assay type: functional, cell-based; conditions: CFPAC-1, 72 h
[18] = test system: MCF7; test: Antiproliferative activity against human MCF7 cells after 72 hrs by Celltiter-Glo luminescent cell viability assay; assay type: functional, cell-based; conditions: MCF7, 72 h
[19] = Antiproliferative activity against human IGROV1 cells after 72 hrs by Celltiter-Glo luminescent cell viability assay; assay type: functional, cell-based; conditions: IGROV-1, 72 h
[20] = Antiproliferative activity against human COLO205 cells after 72 hrs by Celltiter-Glo luminescent cell viability assay; assay type: functional, cell-based; conditions: COLO 205, 72 h
[21] = Antiproliferative activity against human DLD1 cells after 72 hrs by Celltiter-Glo luminescent cell viability assay; assay type: functional, cell-based; conditions: DLD-1, 72 h
[22] = Antiproliferative activity against human UACC62 cells after 72 hrs by Celltiter-Glo luminescent cell viability assay; assay type: functional, cell-based; conditions: UACC-62, 72 h
[23] = Antiproliferative activity against human MIAPaCa2 cells after 72 hrs by Celltiter-Glo luminescent cell viability assay; assay type: functional, cell-based; conditions: MIA PaCa-2, 72 h
[24] = test system: A498; test: Antiproliferative activity against human A498 cells after 72 hrs by Celltiter-Glo luminescent cell viability assay; assay type: functional, cell-based; conditions: A498, 72 h
[25] = Antiproliferative activity against human PC3 cells after 72 hrs by Celltiter-Glo luminescent cell viability assay; assay type: functional, cell-based; conditions: PC-3, 72 h
[26] = test system: A549; test: Antiproliferative activity against human A549 cells after 72 hrs by Celltiter-Glo luminescent cell viability assay; assay type: functional, cell-based; conditions: A549, 72 h
[27] = test system: NCI-H69; test: Antiproliferative activity against human NCI-H69 cells after 72 hrs by Celltiter-Glo luminescent cell viability assay; assay type: functional, cell-based; conditions: NCI-H69, 72 h
[28] = test system: RL; test: Antiproliferative activity against human RL cells after 72 hrs by Celltiter-Glo luminescent cell viability assay; assay type: functional, cell-based

Row | SMILES | MIC [1] [µM] | MIC [2] [µM] | MIC [3] [µM] | MIC [4] [µM] | MIC [5] [µM] | MIC [6] [µM] | MIC [7] [µM] | MIC [8] [µM] | MIC [9] [µM] | MIC [10] [µM] | MIC [11] [µM] | MIC [12] [µM] | MIC [13] [µM] | MIC [14] [µM] | MIC [15] [µM] | MIC [16] [µM] | IC50 [17] [µM] | IC50 [18] [µM] | IC50 [19] [µM] | IC50 [20] [µM] | other results
1 | CC(=O)NCC(=O)N[C@@H](Cc1ccccc1)C(=O)NC1(C(=O)NCC(=O)NC2(C(=O)NC(CCN)C(=O)NC3(C(=O)NCC(=O)NC4(C(=O)N[C@@H](Cc5ccccc5)C(=O)NC5(C(=O)NCC(=O)NC6(C(=O)NCC(=O)NC(CCN)C(=O)NC7(C(=O)NC(CCN)C(=O)NC(CCN)C(=O)NC(CCN)C(=O)NC(CCN)C(N)=O)CCCCC7)CCCCC6)CCCCC5)CCCCC4)CCCCC3)CCCCC2)CCCCC1 (some centres undefined) (Ac-GF[Ac6c]G[Ac6c][ξDab][Ac6c]G[Ac6c]F[Ac6c]G[Ac6c]G[ξDab][Ac6c][ξDab][ξDab][ξDab][ξDab]-NH2) | 2.97 (≈ 6.28 µg/mL) | 1.48 (≈ 3.13 µg/mL) | 1.48 (≈ 3.13 µg/mL) | 1.48 (≈ 3.13 µg/mL) | 2.96 (≈ 6.26 µg/mL) | 2.96 (≈ 6.26 µg/mL) | 5.91 (≈ 12.5 µg/mL) | 2.96 (≈ 6.26 µg/mL) | 2.96 (≈ 6.26 µg/mL) | 47.3 (≈ 100 µg/mL) | 1.48 (≈ 3.13 µg/mL) | 2.96 (≈ 6.26 µg/mL) | 23.6 (≈ 50 µg/mL) | > 47 | > 47 | 11.8 (≈ 25 µg/mL) | 2.7 | 3 | 2.3 | 6.4 | IC50 [21]: 2.6 µM; IC50 [22]: 1.9 µM; IC50 [23]: 4.4 µM; IC50 [24]: 2.1 µM; IC50 [25]: 6.5 µM; IC50 [26]: 2.4 µM; IC50 [27]: 1.5 µM; IC50 [28]: 1.7 µM
2 | CC(=O)NCC(=O)N[C@@H](Cc1ccccc1)C(=O)NC1(C(=O)NCC(=O)NC2(C(=O)NC(CCCN)C(=O)NC3(C(=O)NCC(=O)NC4(C(=O)N[C@@H](Cc5ccccc5)C(=O)NC5(C(=O)NCC(=O)NC6(C(=O)NCC(=O)NC(CCCN)C(=O)NC7(C(=O)NC(CCCN)C(=O)NC(CCCN)C(=O)NC(CCCN)C(=O)NC(CCCN)C(N)=O)CCCCC7)CCCCC6)CCCCC5)CCCCC4)CCCCC3)CCCCC2)CCCCC1 (some centres undefined) (Ac-GF[Ac6c]G[Ac6c][ξOrn][Ac6c]G[Ac6c]F[Ac6c]G[Ac6c]G[ξOrn][Ac6c][ξOrn][ξOrn][ξOrn][ξOrn]-NH2) | 22.8 (≈ 50 µg/mL) | 2.84 (≈ 6.25 µg/mL) | 2.84 (≈ 6.25 µg/mL) | 1.42 (≈ 3.12 µg/mL) | 22.8 (≈ 50 µg/mL) | 11.4 (≈ 25 µg/mL) | 22.8 (≈ 50 µg/mL) | 5.67 (≈ 12.5 µg/mL) | 5.67 (≈ 12.5 µg/mL) | 45.5 (≈ 100 µg/mL) | 2.84 (≈ 6.25 µg/mL) | 2.84 (≈ 6.25 µg/mL) | 45.5 (≈ 100 µg/mL) | > 45 | > 45 | 11.4 (≈ 25 µg/mL) | 5.9 | 4.6 | 5.4 | 3.2 | IC50 [21]: 6.2 µM; IC50 [22]: 3.1 µM; IC50 [23]: 3.6 µM; IC50 [24]: 4.7 µM; IC50 [25]: 7.5 µM; IC50 [26]: 6.5 µM; IC50 [27]: 1.7 µM; IC50 [28]: 2.5 µM
3 | CC(=O)N[C@@H](CCCCN)C(=O)N[C@@H](CCCCN)C(=O)N[C@@H](CCCCN)C(=O)N[C@@H](CCCCN)C(=O)NCC(=O)N[C@@H](Cc1ccccc1)C(=O)NC1(C(=O)NCC(=O)NC2(C(=O)N[C@@H](CCCCN)C(=O)NC3(C(=O)NCC(=O)NC4(C(=O)N[C@@H](Cc5ccccc5)C(=O)NC5(C(=O)NCC(=O)NC6(C(=O)NCC(=O)N[C@@H](CCCCN)C(=O)NC7(C(N)=O)CCCCC7)CCCCC6)CCCCC5)CCCCC4)CCCCC3)CCCCC2)CCCCC1 (Ac-KKKKGF[Ac6c]G[Ac6c]K[Ac6c]G[Ac6c]F[Ac6c]G[Ac6c]GK[Ac6c]-NH2) | 43.8 (≈ 99.9 µg/mL) | 2.73 (≈ 6.24 µg/mL) | 5.47 (≈ 12.5 µg/mL) | 1.37 (≈ 3.13 µg/mL) | 43.8 (≈ 99.9 µg/mL) | 21.9 (≈ 49.9 µg/mL) | 43.8 (≈ 99.9 µg/mL) | 1.37 (≈ 3.13 µg/mL) | 10.9 (≈ 25 µg/mL) | 21.9 (≈ 49.9 µg/mL) | 2.73 (≈ 6.24 µg/mL) | 1.37 (≈ 3.13 µg/mL) | 21.9 (≈ 49.9 µg/mL) | > 44 | > 44 | 21.9 (≈ 49.9 µg/mL) | > 7.5 | 7.3 | > 7.5 | 6.7 | IC50 [21]: > 7.5 µM; IC50 [22]: 6.4 µM; IC50 [23]: > 7.5 µM; IC50 [24]: 4.2 µM; IC50 [25]: > 7.5 µM; IC50 [26]: 7.2 µM; IC50 [27]: 2.2 µM; IC50 [28]: 3.7 µM
